Experimental data from US12115157B2, “3-phenoxyazetidin-1-yl-heteroaryl pyrrolidine derivatives and the use thereof as medicament” (Boehringer Ingelheim International GmbH, priority 2021, dated 2024).
pEC50, pIC50: −log10 of the molar value.

Legend:
human GPR52 = human GPR52 (Homo sapiens (Human), UniProt Q9Y2T5); assay: HTRF assay for direct cAMP measurement; assay type: cell-based; conditions: CHO-K1 cells stably expressing recombinant human GPR52, mean EC50
Method: HTRF cAMP assays were performed using commercially available assay kits according to the manufacturer's instructions (cAMP Dynamic 2 Assay Kit; #62AM4PEJ, Cisbio Bioassays, Bedford, MA). An aliquot of CHO-K1 cells stably expressing recombinant human GPR52 was thawed and resuspended in cell buffer (1×PBS (w/o Ca^2+/Mg^2+)) at a density of 4×10^5 cells per mL. Test compounds were solubilized in DMSO to 10 mM stock solutions and serially diluted in DMSO using 6-fold dilutions to generate 8-point dose response curves. These serially diluted samples were then diluted 1:50 in compound dilution buffer (1×PBS (w/o Ca^2+/Mg^2+) containing 0.5 mM IBMX, 0.1% BSA) to achieve a 4× stock. The diluted compounds were transferred (5 μL per well) in duplicate to the 384-well assay plate (Optiplate #6007290, PerkinElmer, Waltham, MA). Both a positive (reference compound) and negative (non-stimulated vehicle) control was included in each assay run in column 23. The cell suspension was subsequently dispensed into the 384-well assay plates at 15 μL per well (6000 cells) such that the compound was diluted to 1×. […] After a one-hour incubation at room temperature, 10 μL of cAMP D2 reagent followed by 10 μL of cryptate reagent (provided in the Cisbio kit) was added to each well. Plates were then incubated at room temperature for one hour prior to reading. Time-resolved fluorescence measurements were collected on an EnVision® HTRF plate reader (PerkinElmer, Waltham, MA). Counts from the plate reader were fit to the cAMP standard curve included on each plate to determine the amount of cAMP in each test well. The % control was calculated based on the […]. Dose-response curves were generated from the cAMP data and analyzed using a nonlinear least squares curve-fitting program to obtain EC50 values.

hERG channel = hERG channel (Homo sapiens (Human), UniProt Q12809); assay: hERG channel assay (whole-cell patch clamp); assay type: cell-based; conditions: HEK293 cells stably transfected with hERG cDNA
Source text: hERG Channel inhibition of compounds of the present invention was investigated as follows:
HEK (human embryonic kidney) 293 cells were stably transfected with hERG cDNA. Cells determined for use in patch clamp experiments were cultivated without antibiotic.
Cells were superfused with a bath solution containing (mM): NaCl (137), KCl (4.0), MgCl2 (1.0), CaCl2(1.8), Glucose (10), HEPES (10), pH 7.4 with NaOH. Patch pipettes were made from borosilicate glass tubing using a pipette and filled with pipette solution containing (mM): K-aspartate (130), MgCl2(5.0), EGTA (5.0), K2ATP (4.0), HEPES (10.0), pH 7.2 with KOH. Resistance of the microelectrodes was typically in the range between 2 MΩ and 5 MΩ.
Membrane currents were recorded using an EPC-10 patch clamp amplifier (HEKA Electronics, Lambrecht, FRG) and PatchMaster software (HEKA). hERG-mediated membrane currents were recorded at typically 28° C., using the whole-cell configuration of the patch-clamp technique. Transfected HEK293 cells were clamped at a holding potential of −60 mV and hERG-mediated inactivating tail currents were elicited using a pulse pattern with fixed amplitudes (activation/inactivation: 40 mV for 2000 ms; recovery: 120 mV for 2 ms; ramp to 40 mV in 2 ms; inactivating tail current: 40 mV for 50 ms) repeated at 15 s intervals. During each inter-pulse interval 4 pulses scaled down by a factor of 0.2 were recorded for a P/n leak subtraction procedure. Rs compensation was employed up to a level that safely allows recording devoid of ringing. The remaining uncompensated Rs was recorded as well as actual temperature and holding current.
The concentrations of the test item were applied sequentially on each of the different cells investigated. A steady state level of baseline current was measured for at least 5 sweeps prior to the application of the first test article concentration. The test item was dissolved in DMSO to yield a stock solution of 1000-fold the highest final concentration. This stock was diluted further in DMSO to stock solutions of 1000-fold the remaining final concentrations. Final dilutions in extracellular buffer were prepared freshly from these stocks by a 1:1000 dilution step each before starting the experiments.
Peak current amplitudes were measured 3 ms after the ramp to +40 mV. For baseline and each concentration, the peak currents of the three last sweeps before application of the next concentration were averaged. Residual currents (I/I0) were calculated for each cell as the fraction of actual average peak current and average baseline peak current. Current inhibition was expressed as […]. Current inhibition for all cells was reported as mean ±SD. If possible, from mean current inhibition data the IC50 was estimated based on the Hill equation using a least squares procedure.

human plasma proteins = assay: Human plasma protein binding assay (equilibrium dialysis); assay type: in vitro ADME; conditions: 1 μM, 2 hours, 37° C.
Method: Equilibrium dialysis (ED) technique was used to determine the approximate in vitro fractional binding of test compounds to plasma proteins. Dianorm Teflon dialysis cells (micro 0.2) were used. Each dialysis cell consists of a donor and an acceptor chamber, separated by an ultrathin semipermeable membrane with a 5 kDa molecular weight cut-off. Stock solutions for each test compound were prepared in DMSO at 1 mM and serially diluted to obtain a final test concentration of 1 μM. The subsequent dialysis solutions were prepared in plasma (supplemented with NaEDTA as anticoagulant), and aliquots of 200 μL test compound dialysis solution in plasma were dispensed into the donor (plasma) chambers. Aliquots of 200 μL dialysis buffer (100 mM potassium phosphate, pH 7.4) were dispensed into the buffer (acceptor) chamber. Incubation was carried out for 2 hours under rotation at 37° C. for establishing equilibrium.
At the end of the dialysis period, aliquots obtained from donor and acceptor chambers, respectively, were transferred into reaction tubes, spiked with Internal Standard solution and processed for HPLC-MS/MS analysis. Analyte concentrations were quantified in aliquots of samples by HPLC-MS/MS against external calibration curves.
Percent bound was calculated using the formula: % bound=(plasma concentration−buffer concentration/plasma concentration)×100

human hepatocytes = assay: Metabolic stability in human hepatocytes; assay type: in vitro ADME; conditions: human hepatocyte suspension, 1 μM; predicted hepatic clearance as percentage of hepatic blood flow
Method: The metabolic degradation of a test compound was assayed in a human hepatocyte suspension. After recovery from cryopreservation, human hepatocytes were diluted in Dulbecco's modified eagle medium (supplemented with 3.5 μg glucagon/500 mL, 2.5 mg insulin/500 mL, 3.75 mg hydrocortisone/500 mL, 5% human serum) to obtain a final cell density of 1.0×10^6 cells/mL or 4.0×10^6 cells/mL, depending on the metabolic turnover rate of the test compound.
Following a 30 minutes preincubation in a cell culture incubator (37° C., 10% CO2), test compound solution was spiked into the hepatocyte suspension, resulting in a final test compound concentration of 1 μM and a final DMSO concentration of 0.05% (v/v).
The cell suspension was incubated at 37° C. (cell culture incubator, horizontal shaker) and samples were removed from the incubation after 0, 0.5, 1, 2, 4 and 6 hours. Samples were quenched with acetonitrile (containing internal standard) and pelleted by centrifugation. The supernatant was transferred to a 96-deepwell plate, and prepared for analysis of decline of parent compound by HPLC-MS/MS.
The percentage of remaining test compound was calculated using the peak area ratio (test compound/internal standard) of each incubation time point relative to the time point 0 peak area ratio. The log-transformed data were plotted versus incubation time, and the absolute value of the slope obtained by linear regression analysis was used to estimate in vitro half-life (T1/2).
In vitro intrinsic clearance (CLint) was calculated from in vitro T1/2 and scaled to whole liver using a hepatocellularity of 120×10^6 cells/g liver, a human liver per body weight of 25.7 g liver/kg as well as in vitro incubation parameters, applying the following equation: CL_[…]_IN VIVO[mL/min/kg]=(CL_[…][μL/min/10^6 cells]×hepatocellularity[10^6 cells/g liver]×liver factor[g/kg body weight])/1000
Hepatic in vivo blood clearance (CL) was predicted according to the well-stirred liver model considering an average liver blood flow (QH) of 20.7 mL/min/kg: CL[mL/min/kg]=CL_[…]_IN VIVO[mL/min/kg]×hepatic blood flow[mL/min/kg]/(CL_[…]_IN VIVO[mL/min/kg]+hepatic blood flow[mL/min/kg])
Results were expressed as percentage of hepatic blood flow: QH[%]=CL[mL/min/kg]/hepatic blood flow[mL/min/kg])

Sequence of human GPR52 (Q9Y2T5 whole entry): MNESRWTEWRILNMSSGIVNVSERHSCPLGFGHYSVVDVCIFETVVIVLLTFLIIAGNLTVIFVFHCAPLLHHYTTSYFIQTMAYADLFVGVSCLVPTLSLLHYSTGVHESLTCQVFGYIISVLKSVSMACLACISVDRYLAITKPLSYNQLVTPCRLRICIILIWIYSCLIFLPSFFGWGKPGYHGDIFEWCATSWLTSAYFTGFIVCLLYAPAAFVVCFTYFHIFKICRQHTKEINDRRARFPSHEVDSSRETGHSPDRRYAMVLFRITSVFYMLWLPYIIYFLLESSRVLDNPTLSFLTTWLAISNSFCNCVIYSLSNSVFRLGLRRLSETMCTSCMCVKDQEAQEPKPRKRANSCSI
Sequence of hERG channel (Q12809 whole entry): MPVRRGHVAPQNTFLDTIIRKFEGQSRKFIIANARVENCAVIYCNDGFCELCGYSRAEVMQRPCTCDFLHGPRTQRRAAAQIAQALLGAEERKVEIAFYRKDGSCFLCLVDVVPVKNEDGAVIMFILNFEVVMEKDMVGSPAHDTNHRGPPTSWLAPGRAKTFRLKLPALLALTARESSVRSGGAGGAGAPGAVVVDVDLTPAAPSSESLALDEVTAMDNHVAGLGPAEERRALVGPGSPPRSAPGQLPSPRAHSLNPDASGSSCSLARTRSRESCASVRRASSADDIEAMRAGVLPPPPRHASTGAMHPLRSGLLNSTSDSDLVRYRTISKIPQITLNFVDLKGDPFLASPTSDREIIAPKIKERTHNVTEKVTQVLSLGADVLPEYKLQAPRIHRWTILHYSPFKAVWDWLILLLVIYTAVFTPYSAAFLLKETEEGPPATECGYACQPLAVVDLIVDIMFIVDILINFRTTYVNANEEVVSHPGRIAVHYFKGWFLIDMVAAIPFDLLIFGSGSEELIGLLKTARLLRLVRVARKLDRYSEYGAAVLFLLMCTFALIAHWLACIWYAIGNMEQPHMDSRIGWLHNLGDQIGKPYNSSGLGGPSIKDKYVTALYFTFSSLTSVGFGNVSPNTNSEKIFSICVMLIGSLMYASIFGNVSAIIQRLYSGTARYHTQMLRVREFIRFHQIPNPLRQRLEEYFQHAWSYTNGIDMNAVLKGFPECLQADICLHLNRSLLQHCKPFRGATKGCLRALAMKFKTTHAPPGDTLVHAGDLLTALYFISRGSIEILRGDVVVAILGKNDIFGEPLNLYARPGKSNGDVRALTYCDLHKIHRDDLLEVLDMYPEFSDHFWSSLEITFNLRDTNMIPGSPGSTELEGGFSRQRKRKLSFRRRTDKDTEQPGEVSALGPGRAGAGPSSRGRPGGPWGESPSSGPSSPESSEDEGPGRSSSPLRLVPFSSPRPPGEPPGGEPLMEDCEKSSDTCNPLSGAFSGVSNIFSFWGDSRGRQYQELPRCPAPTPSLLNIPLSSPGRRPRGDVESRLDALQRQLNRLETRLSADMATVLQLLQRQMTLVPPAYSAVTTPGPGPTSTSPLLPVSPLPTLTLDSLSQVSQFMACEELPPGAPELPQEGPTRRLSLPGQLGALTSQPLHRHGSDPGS

CC(=O)N1CC(NC(=O)c2nccnc2N2CC(Oc3ccc(F)c(Cl)c3)C2)C(F)(F)C1 (racemic) [Example 1]
pEC50 (human GPR52): 7.82
pIC50 (hERG channel): < 5.00
Hu PPB (human plasma proteins): 92.6 % bound
Human HepStab (human hepatocytes): 11.1 % QH

[2H]C([2H])([2H])C(=O)N1CC(NC(=O)c2nccnc2N2CC(Oc3ccc(F)c(F)c3)C2)C(F)(F)C1 (racemic) [Example 4]
pEC50 (human GPR52): 7.74
pIC50 (hERG channel): < 5.00
Hu PPB (human plasma proteins): 79.2 % bound
Human HepStab (human hepatocytes): 8.5 % QH

CC(=O)N1CC(NC(=O)c2nccnc2N2CC(Oc3cc(F)cc(Cl)c3)C2)C(F)(F)C1 (racemic) [Example 5]
pEC50 (human GPR52): 7.57
pIC50 (hERG channel): < 5.00
Hu PPB (human plasma proteins): 93.2 % bound
Human HepStab (human hepatocytes): 17.0 % QH

CC(=O)N1CC(NC(=O)c2nccnc2N2CC(Oc3cc(F)cc(OC(F)F)c3)C2)C(F)(F)C1 (racemic) [Example 7]
pEC50 (human GPR52): 6.99
Human HepStab (human hepatocytes): 15.4 % QH

CS(=O)(=O)N1CC(NC(=O)c2nccnc2N2CC(Oc3cc(F)c(F)c(F)c3)C2)C(F)(F)C1 (racemic) [Example 9]
pEC50 (human GPR52): 7.72
pIC50 (hERG channel): < 5.00
Hu PPB (human plasma proteins): 93.4 % bound
Human HepStab (human hepatocytes): 5.8 % QH

O=C(NC1CNCC1(F)F)c1nccnc1N1CC(Oc2cc(F)c(F)c(F)c2)C1 (racemic) [Intermediate H-3]
pEC50 (human GPR52): 6.42
Hu PPB (human plasma proteins): 88.2 % bound
Human HepStab (human hepatocytes): 27.7 % QH

CC(=O)N1CC(F)C(NC(=O)c2nsnc2N2CC(Oc3ccc(F)c(F)c3)C2)C1 (single isomer, unassigned) [Example 14a]
pEC50 (human GPR52): 5.93

CC(=O)N1CC(F)C(NC(=O)c2nsnc2N2CC(Oc3ccc(F)c(F)c3)C2)C1 (single isomer, unassigned) [Example 14b]
pEC50 (human GPR52): 7.96
pIC50 (hERG channel): < 5.00
Hu PPB (human plasma proteins): 89.7 % bound

CC(=O)N1CCC(NC(=O)c2nsnc2N2CC(Oc3ccc(F)c(F)c3)C2)C1 (single isomer, unassigned) [Example 16b]
pEC50 (human GPR52): 6.68
pIC50 (hERG channel): < 5.00

CCC(=O)N1CC(NC(=O)c2nccnc2N2CC(Oc3ccc(F)c(F)c3)C2)C(F)(F)C1 (stereo not shown) [Example 2]
pEC50 (human GPR52): 7.62
pIC50 (hERG channel): 5.18
Hu PPB (human plasma proteins): 89.9 % bound
Human HepStab (human hepatocytes): 21.3 % QH

CC(=O)N1CC(NC(=O)c2nccnc2N2CC(Oc3cc(F)cc(C(F)F)c3)C2)C(F)(F)C1 (stereo not shown) [Example 6]
pEC50 (human GPR52): 7.27
pIC50 (hERG channel): < 5.00
Hu PPB (human plasma proteins): 87.8 % bound
Human HepStab (human hepatocytes): 4.8 % QH

CC(=O)N1C[C@@H](NC(=O)c2nccnc2N2CC(Oc3cc(F)cc(F)c3)C2)C(F)(F)C1 [Example 10b]
pEC50 (human GPR52): 5.88

CC(=O)N1CC2(NC(=O)c3nsnc3N3CC(Oc4cc(F)c(F)c(F)c4)C3)CC1C2 [Example 12]
pEC50 (human GPR52): 7.62
pIC50 (hERG channel): < 5.00
Hu PPB (human plasma proteins): 88.5 % bound
Human HepStab (human hepatocytes): 5.0 % QH

CC(=O)N1CC(F)C(NC(=O)c2nsnc2N2CC(Oc3ccc(F)c(F)c3)C2)C1 (stereo not shown) [Example 14b]
Human HepStab (human hepatocytes): <4.1 % QH

CC(=O)N1CC[C@H](NC(=O)c2nsnc2N2CC(Oc3cc(F)cc(F)c3)C2)C1 [Example 15b]
pEC50 (human GPR52): 6.77

CC(=O)N1CCC(NC(=O)c2nsnc2N2CC(Oc3ccc(F)c(F)c3)C2)C1 (stereo not shown) [Example 16a]
pEC50 (human GPR52): 7.96
pIC50 (hERG channel): < 5.00
Hu PPB (human plasma proteins): 86.2 % bound
Human HepStab (human hepatocytes): <4.1 % QH
